Key:
Design in all cases: scale not given: the % may be the effect or the level left
[1] = target: Tau-tubulin kinase 2 (Homo sapiens) (UniProt Q6IQ55); test: Inhibition of human TTBK2 assessed as enzyme activity at 1 uM using myelin basic protein as substrate preincubated for 20 mins followed by [gamma-33P]-ATP addition and measured after 120 mins by radiometric Hot-SpotSM Kinase assay relative to control
[2] = target: Testis-specific serine/threonine-protein kinase 6 (Homo sapiens) (UniProt Q9BXA6); test: Inhibition of human SSTK assessed as enzyme activity at 1 uM using myelin basic protein as substrate preincubated for 20 mins followed by [gamma-33P]-ATP addition and measured after 120 mins by radiometric Hot-SpotSM Kinase assay relative to control
[3] = target: Tau-tubulin kinase 1 (Homo sapiens) (UniProt Q5TCY1); test: Inhibition of human TTBK1 assessed as enzyme activity at 1 uM using myelin basic protein as substrate preincubated for 20 mins followed by [gamma-33P]-ATP addition and measured after 120 mins by radiometric Hot-SpotSM Kinase assay relative to control
[4] = target: T1, Ephrin type-B receptor 3 (Homo sapiens) (UniProt P54753); test: Inhibition of human EPHB3 assessed as enzyme activity at 1 uM using poly[Glu:Tyr] (4:1) as substrate preincubated for 20 mins followed by [gamma-33P]-ATP addition and measured after 120 mins by radiometric Hot-SpotSM Kinase assay relative to control
T1 sequence (whole entry): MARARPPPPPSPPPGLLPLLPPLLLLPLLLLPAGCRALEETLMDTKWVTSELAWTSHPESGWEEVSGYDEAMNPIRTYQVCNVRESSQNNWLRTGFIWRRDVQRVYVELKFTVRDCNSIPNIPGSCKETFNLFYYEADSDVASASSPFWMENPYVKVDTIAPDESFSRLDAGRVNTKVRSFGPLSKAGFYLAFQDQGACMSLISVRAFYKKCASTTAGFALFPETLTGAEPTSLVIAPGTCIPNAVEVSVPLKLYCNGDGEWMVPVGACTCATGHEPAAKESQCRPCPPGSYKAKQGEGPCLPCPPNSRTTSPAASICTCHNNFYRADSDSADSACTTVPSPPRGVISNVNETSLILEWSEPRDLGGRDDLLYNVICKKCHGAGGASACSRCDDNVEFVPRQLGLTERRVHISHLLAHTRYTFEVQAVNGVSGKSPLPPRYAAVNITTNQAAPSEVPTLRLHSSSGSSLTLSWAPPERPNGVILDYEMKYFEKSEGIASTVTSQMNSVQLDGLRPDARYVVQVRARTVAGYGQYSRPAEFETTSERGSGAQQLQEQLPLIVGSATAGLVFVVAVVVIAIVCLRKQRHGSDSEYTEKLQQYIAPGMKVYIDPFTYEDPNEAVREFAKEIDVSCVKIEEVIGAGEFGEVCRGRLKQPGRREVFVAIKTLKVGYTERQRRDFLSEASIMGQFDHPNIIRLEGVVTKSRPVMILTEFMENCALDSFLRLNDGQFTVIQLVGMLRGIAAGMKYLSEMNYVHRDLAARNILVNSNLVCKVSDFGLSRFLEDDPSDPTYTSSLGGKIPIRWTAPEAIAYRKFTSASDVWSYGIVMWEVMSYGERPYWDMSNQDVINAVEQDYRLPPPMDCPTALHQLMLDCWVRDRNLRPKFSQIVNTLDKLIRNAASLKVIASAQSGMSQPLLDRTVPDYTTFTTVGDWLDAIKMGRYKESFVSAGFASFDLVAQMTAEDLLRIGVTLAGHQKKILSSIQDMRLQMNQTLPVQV

[5] = target: SRSF protein kinase 3 (Homo sapiens) (UniProt Q9UPE1); test: Inhibition of human MSSK1 assessed as enzyme activity at 1 uM using GRSRSRSRSR as substrate preincubated for 20 mins followed by [gamma-33P]-ATP addition and measured after 120 mins by radiometric Hot-SpotSM Kinase assay relative to control
[6] = target: Serine/threonine-protein kinase Nek7 (Homo sapiens) (UniProt Q8TDX7); test: Inhibition of human NEK7 assessed as enzyme activity at 1 uM using casein as substrate preincubated for 20 mins followed by [gamma-33P]-ATP addition and measured after 120 mins by radiometric Hot-SpotSM Kinase assay relative to control
[7] = target: T2, Serine/threonine-protein kinase ULK2 (Homo sapiens) (UniProt Q8IYT8); test: Inhibition of human ULK2 assessed as enzyme activity at 1 uM using myelin basic protein as substrate preincubated for 20 mins followed by [gamma-33P]-ATP addition and measured after 120 mins by radiometric Hot-SpotSM Kinase assay relative to control
T2 sequence (whole entry): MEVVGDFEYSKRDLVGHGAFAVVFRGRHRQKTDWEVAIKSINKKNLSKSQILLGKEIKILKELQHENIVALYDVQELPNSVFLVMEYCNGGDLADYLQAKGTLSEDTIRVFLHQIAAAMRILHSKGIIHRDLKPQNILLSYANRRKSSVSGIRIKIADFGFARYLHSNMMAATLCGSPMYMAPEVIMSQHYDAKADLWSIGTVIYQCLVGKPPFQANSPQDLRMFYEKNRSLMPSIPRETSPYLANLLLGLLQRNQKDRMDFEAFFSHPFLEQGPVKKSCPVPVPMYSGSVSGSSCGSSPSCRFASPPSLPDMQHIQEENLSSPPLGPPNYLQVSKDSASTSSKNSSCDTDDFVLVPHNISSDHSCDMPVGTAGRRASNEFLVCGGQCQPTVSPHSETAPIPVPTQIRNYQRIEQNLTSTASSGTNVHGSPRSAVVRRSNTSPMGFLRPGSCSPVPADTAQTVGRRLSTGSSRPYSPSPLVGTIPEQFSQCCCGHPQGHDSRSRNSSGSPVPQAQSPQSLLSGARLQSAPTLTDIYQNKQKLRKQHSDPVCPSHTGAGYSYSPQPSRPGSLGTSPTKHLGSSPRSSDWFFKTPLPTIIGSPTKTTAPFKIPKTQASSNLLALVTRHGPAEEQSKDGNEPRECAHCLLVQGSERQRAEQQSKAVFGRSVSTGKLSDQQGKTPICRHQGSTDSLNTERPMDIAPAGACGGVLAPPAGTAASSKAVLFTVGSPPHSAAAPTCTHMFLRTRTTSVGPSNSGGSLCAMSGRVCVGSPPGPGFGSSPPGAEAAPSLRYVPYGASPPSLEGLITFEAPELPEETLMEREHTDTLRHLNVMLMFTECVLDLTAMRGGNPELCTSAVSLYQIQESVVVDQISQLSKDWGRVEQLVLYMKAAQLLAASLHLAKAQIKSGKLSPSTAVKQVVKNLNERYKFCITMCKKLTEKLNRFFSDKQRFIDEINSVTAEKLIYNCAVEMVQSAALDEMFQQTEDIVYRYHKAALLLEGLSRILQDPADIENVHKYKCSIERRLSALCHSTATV

Tau-tubulin kinase 2 (Homo sapiens), sequence (Q6IQ55 whole entry): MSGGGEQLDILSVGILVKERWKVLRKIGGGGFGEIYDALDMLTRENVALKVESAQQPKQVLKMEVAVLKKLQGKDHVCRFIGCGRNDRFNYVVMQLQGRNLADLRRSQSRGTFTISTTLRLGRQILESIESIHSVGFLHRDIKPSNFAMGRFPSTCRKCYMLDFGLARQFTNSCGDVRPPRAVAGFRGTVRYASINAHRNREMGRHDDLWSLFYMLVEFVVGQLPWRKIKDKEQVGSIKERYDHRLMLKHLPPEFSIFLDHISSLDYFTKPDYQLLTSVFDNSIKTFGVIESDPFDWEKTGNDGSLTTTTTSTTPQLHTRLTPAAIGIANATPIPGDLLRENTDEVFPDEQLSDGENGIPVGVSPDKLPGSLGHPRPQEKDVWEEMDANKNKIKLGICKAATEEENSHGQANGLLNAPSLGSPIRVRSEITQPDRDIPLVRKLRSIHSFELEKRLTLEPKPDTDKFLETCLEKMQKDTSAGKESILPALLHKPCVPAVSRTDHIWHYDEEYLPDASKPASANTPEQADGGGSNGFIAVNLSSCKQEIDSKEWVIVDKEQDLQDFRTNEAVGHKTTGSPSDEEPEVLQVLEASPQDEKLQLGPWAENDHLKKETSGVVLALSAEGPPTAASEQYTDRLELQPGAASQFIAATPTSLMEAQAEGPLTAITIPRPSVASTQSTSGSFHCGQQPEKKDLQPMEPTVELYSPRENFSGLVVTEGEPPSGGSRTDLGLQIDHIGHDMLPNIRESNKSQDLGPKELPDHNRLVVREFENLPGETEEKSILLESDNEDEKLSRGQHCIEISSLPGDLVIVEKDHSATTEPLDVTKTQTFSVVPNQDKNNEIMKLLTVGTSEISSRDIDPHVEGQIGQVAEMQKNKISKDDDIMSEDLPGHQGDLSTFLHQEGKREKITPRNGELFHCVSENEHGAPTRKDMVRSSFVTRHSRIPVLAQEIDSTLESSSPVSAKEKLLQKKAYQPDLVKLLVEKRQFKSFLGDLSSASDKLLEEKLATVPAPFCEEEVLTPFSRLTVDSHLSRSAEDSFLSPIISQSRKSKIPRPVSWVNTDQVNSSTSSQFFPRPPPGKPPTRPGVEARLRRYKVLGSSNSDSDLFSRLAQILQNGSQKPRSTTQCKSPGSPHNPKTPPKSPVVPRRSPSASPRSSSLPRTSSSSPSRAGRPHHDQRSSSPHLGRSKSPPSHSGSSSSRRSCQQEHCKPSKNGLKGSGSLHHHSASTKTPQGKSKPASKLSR
SRSF protein kinase 3 (Homo sapiens), sequence (Q9UPE1 whole entry): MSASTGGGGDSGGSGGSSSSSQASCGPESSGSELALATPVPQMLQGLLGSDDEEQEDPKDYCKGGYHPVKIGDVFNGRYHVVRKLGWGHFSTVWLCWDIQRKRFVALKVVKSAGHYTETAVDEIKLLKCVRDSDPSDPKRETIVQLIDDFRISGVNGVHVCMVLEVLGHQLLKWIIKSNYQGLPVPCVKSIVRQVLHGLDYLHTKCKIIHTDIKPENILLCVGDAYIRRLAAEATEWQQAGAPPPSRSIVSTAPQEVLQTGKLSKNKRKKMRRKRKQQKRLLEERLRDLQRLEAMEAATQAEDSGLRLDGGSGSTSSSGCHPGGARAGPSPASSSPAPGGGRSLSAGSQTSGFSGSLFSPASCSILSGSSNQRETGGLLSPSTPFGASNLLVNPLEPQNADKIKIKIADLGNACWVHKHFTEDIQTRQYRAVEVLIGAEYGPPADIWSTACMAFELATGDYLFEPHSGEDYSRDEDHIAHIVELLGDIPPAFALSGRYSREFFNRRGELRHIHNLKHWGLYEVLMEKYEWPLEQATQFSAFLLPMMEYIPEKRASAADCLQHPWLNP
Testis-specific serine/threonine-protein kinase 6 (Homo sapiens), sequence (Q9BXA6 whole entry): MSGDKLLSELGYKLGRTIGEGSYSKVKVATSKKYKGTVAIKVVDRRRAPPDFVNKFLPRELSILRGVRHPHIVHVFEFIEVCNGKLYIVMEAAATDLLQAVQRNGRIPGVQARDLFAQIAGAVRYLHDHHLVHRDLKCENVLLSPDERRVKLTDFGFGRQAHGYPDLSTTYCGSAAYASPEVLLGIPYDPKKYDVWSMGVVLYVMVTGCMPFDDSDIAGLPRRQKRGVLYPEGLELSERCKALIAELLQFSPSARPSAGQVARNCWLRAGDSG
Serine/threonine-protein kinase Nek7 (Homo sapiens), sequence (Q8TDX7 whole entry, looked up): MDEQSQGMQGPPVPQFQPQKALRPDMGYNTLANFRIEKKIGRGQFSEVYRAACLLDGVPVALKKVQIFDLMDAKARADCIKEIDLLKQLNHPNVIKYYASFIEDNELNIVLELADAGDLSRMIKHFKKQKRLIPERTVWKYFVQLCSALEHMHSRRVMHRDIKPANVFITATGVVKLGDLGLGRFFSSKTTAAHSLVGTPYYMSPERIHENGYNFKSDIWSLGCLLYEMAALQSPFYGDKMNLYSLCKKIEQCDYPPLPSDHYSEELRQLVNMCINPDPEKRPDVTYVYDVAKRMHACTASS
Tau-tubulin kinase 1 (Homo sapiens), sequence (Q5TCY1 whole entry): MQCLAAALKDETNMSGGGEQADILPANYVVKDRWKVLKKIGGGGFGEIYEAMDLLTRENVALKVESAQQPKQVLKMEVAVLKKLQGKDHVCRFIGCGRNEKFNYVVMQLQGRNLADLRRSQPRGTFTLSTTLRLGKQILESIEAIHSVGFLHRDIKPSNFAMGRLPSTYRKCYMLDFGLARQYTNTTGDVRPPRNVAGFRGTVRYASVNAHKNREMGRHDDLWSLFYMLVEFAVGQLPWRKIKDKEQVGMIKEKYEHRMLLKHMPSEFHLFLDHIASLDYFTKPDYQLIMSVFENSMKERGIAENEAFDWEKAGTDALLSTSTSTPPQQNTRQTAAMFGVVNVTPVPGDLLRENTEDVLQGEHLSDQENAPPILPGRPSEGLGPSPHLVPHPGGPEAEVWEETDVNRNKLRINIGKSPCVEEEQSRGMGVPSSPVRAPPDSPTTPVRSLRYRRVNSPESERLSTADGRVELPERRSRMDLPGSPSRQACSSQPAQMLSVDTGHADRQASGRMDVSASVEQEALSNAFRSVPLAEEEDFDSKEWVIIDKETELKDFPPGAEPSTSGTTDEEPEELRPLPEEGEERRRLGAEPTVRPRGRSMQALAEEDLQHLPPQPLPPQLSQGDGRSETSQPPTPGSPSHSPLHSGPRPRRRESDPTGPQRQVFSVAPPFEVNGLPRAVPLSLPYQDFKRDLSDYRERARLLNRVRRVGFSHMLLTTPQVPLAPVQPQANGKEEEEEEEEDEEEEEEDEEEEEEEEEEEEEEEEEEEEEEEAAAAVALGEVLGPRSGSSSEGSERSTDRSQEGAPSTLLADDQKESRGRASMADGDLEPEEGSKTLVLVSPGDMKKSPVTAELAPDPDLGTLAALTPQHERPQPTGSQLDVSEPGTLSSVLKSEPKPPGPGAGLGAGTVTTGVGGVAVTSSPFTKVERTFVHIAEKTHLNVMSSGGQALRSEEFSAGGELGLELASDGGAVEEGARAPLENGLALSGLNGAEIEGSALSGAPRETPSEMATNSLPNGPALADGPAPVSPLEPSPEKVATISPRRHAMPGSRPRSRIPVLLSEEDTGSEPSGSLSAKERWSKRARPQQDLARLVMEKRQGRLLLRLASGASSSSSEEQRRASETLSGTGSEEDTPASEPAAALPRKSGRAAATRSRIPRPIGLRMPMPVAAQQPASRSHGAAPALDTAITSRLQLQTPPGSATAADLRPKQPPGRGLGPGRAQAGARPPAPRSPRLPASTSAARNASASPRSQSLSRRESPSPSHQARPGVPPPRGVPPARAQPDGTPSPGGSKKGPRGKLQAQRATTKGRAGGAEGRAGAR

Structure (SMILES)	Activity [1] [%]	Activity [2] [%]	Activity [3] [%]	Activity [4] [%]	Activity [5] [%]	Activity [6] [%]	Activity [7] [%]
CC[C@H](Nc1ncnc2[nH]cnc12)c1nc2cccc(F)c2c(=O)n1-c1ccccc1	90.6	105	95.8	98.3	101	97.3	89.3
C[C@H](Nc1ncnc2nc[nH]c12)c1cc2cccc(Cl)c2c(=O)n1-c1ccccc1	95.8	103	97.8	89.7	102	100	98.4
CC(C)Oc1ccc(-c2nn([C@@H](C)c3oc4ccc(F)cc4c(=O)c3-c3cccc(F)c3)c3ncnc(N)c23)cc1F [UMBRALISIB]	96.7	102	103	97.4	107	85.4	101
